The source made the active and inactive calls. The rule behind the calls is not given here.
Key:
[1] = organism: Rattus norvegicus; assay: Displacement of [3H]flumazenil from central benzodiazepine receptor in rat cerebral cortex membranes at 10 uM after 90 mins by competitive binding assay; type: cell membranes; details: Membrane
[2] = target: Translocator protein (Rattus norvegicus) (UniProt P16257); assay: Displacement of [3H]PK11195 from TSPO in rat kidney mitochondrial membranes at 1 uM by competitive binding assay; type: cell membranes; details: Membrane
[3] = target: Translocator protein (Rattus norvegicus, UniProt P16257); assay: Displacement of [3H]PK11195 from TSPO in rat kidney mitochondrial membranes by competitive binding assay; type: cell membranes, Membrane
[4] = test system: C6; assay: Increase in pregnenolone production in rat C6 glioma cells at 40 uM after 2 hrs by ELISA; type: functional, cell-based
[5] = test system: U-87MG ATCC; assay: Antiproliferative activity against human U87MG cells assessed as cell viability at 100 uM after 24 hrs by MTS assay; type: functional, cell-based

SMILES | inhibition [1] [%] | inhibition [2] [%] | Ki [3] [nM] | Activity [4] | Activity [5]
CCCCCN(CCCCC)C(=O)c1nc(-c2ccccc2)c2ccccc2n1 | 0 |  |  |  | 
O=C(c1nc(-c2ccccc2)c2cc(Cl)ccc2n1)N1CCCCCC1 | 0 | 38 |  |  | 
CC(C)N(C)C(=O)c1nc(-c2ccc(Cl)cc2)c2ccccc2n1 | 0 |  | 50.4 |  | 
O=C(c1nc(-c2ccc(Cl)cc2)c2cc(Cl)ccc2n1)N1CCCC1 | 0 | 64 |  |  | 
CC(C)N(C)C(=O)c1nc(-c2ccccc2Cl)c2cc(Cl)ccc2n1 | 0 | 0 |  |  | 
O=C(c1nc(-c2ccccc2)c2cc(Cl)ccc2n1)N1CCCCC1 | 0 | 46 |  |  | 
CCCN(CCC)C(=O)c1nc(-c2ccccc2)c2ccccc2n1 | 0 |  | 36.8 |  | 
O=C(c1nc(-c2ccccc2Cl)c2ccccc2n1)N1CCCC1 | 0 | 70 |  |  | 
CCCCCCN(CCCCCC)C(=O)c1nc(-c2ccccc2Cl)c2ccccc2n1 | 0 |  | 65.1 |  | 
O=C(c1nc(-c2ccccc2Cl)c2cc(Cl)ccc2n1)N1CCCCC1 | 0 |  | 273 |  | 
CCC(C)N(C)C(=O)c1nc(-c2ccccc2Cl)c2cc(Cl)ccc2n1 (stereo unspecified) | 0 | 43 |  |  | 
CC[C@H](C)N(C)C(=O)c1nc(-c2ccccc2Cl)c2ccccc2n1 | 0 |  | 2.2 |  | 
CCC(C)N(C)C(=O)c1nc(-c2ccccc2)c2cc(Cl)ccc2n1 (stereo unspecified) | 0 | 22 |  |  | 
CC(C)N(C)C(=O)c1nc(-c2ccccc2)c2cc(Cl)ccc2n1 | 0 | 0 |  |  | 
CN1C(=O)CN=C(c2ccc(Cl)cc2)c2cc(Cl)ccc21 | 0 |  |  | Active | 
O=C(c1nc(-c2ccc(Cl)cc2)c2ccccc2n1)N1CCCCC1 | 0 |  | 493 |  | 
CC[C@@H](C)N(C)C(=O)c1nc(-c2ccccc2Cl)c2ccccc2n1 | 0 |  | 1.55 |  | 
CCC(C)NC(=O)c1nc(-c2ccccc2)c2ccccc2n1 (stereo unspecified) | 0 | 0 |  |  | 
O=C(c1nc(-c2ccc(Cl)cc2)c2cc(Cl)ccc2n1)N1CCCCC1 | 0 | 76 |  |  | 
CC(C)CN(C)C(=O)c1nc(-c2ccc(Cl)cc2)c2ccccc2n1 | 0 |  | 20.7 |  | 
O=C(c1nc(-c2ccccc2Cl)c2cc(Cl)ccc2n1)N1CCCCCC1 | 0 |  | 415 |  | 

SMILES | inhibition [1] [%] | inhibition [2] [%] | Ki [3] [nM] | Activity [4] | Activity [5]
CCCCCCN(CCCCCC)C(=O)c1nc(-c2ccccc2Cl)c2cc(Cl)ccc2n1 | 0 |  | 30.4 |  | 
CCC(C)NC(=O)c1nc(-c2ccccc2Cl)c2cc(Cl)ccc2n1 (stereo unspecified) | 0 | 0 |  |  | 
CCC(C)N(C)C(=O)c1nc(-c2ccccc2Cl)c2ccccc2n1 (stereo unspecified) | 0 |  | 3.06 | Active | Active
CCCCN(CCCC)C(=O)c1nc(-c2ccccc2)c2ccccc2n1 | 0 |  | 3.3 | Active | 
CCC(C)N(C)C(=O)c1nc(-c2ccc(Cl)cc2)c2cc(Cl)ccc2n1 (stereo unspecified) | 0 |  | 179 |  | 
CC[C@H](C)N(C)C(=O)c1nc(-c2ccc(Cl)cc2)c2ccccc2n1 | 0 |  | 2.51 |  | 
CC(C)CN(C)C(=O)c1nc(-c2ccccc2Cl)c2cc(Cl)ccc2n1 | 0 | 77 |  |  | 
O=C(c1nc(-c2ccccc2)c2ccccc2n1)N1CCCCC1 | 0 | 61 |  |  | 
O=C(c1nc(-c2ccccc2)c2ccccc2n1)N1CCCC1 | 0 | 36 |  |  | 
CC[C@@H](C)N(C)C(=O)c1nc(-c2ccc(Cl)cc2)c2ccccc2n1 | 0 |  | 1.57 |  | 
CC(C)CN(C)C(=O)c1nc(-c2ccc(Cl)cc2)c2cc(Cl)ccc2n1 | 0 |  | 60.7 |  | 
CC(C)N(C)C(=O)c1nc(-c2ccc(Cl)cc2)c2cc(Cl)ccc2n1 | 0 | 39 |  |  | 
O=C(c1nc(-c2ccc(Cl)cc2)c2ccccc2n1)N1CCCC1 | 0 |  | 644 |  | 
CC(C)CN(C)C(=O)c1nc(-c2ccccc2)c2cc(Cl)ccc2n1 | 0 |  | 842 |  | 
CCCCCCN(CCCCCC)C(=O)c1nc(-c2ccccc2)c2ccccc2n1 | 0 |  | 0.69 | inactive | Active
CCC(C)N(C)C(=O)c1nc(-c2ccc(Cl)cc2)c2ccccc2n1 (stereo unspecified) | 0 |  | 2.67 | Active | 
CCC(C)N(C)C(=O)c1nc(-c2ccccc2)c2ccccc2n1 (stereo unspecified) | 0 |  | 3 |  | 
O=C(c1nc(-c2ccccc2)c2cc(Cl)ccc2n1)N1CCCC1 | 0 | 43 |  |  | 
CN1C(=O)CN=C(c2ccccc2F)c2cc([N+](=O)[O-])ccc21 | 0 |  |  |  | 
CCOC(=O)c1ncn2c1CN(C)C(=O)c1cc(F)ccc1-2 | 0 |  |  |  | 
CCCCCCN(CCCCCC)C(=O)c1nc(-c2ccccc2)c2cc(Cl)ccc2n1 | 0 |  | 38.5 |  | 

SMILES | inhibition [1] [%] | inhibition [2] [%] | Ki [3] [nM] | Activity [4] | Activity [5]
CCCN(CCC)C(=O)Cc1c(-c2ccc(Cl)cc2)nc2ccc(Cl)cn12 | 0 |  |  |  | 
CC[C@H](C)N(C)C(=O)c1nc(-c2ccccc2)c2ccccc2n1 | 0 |  | 6.09 |  | 
CCCCN(C)C(=O)c1nc(-c2ccccc2)c2ccccc2n1 | 0 |  | 46 | Active | 
CC(C)CN(C)C(=O)c1nc(-c2ccccc2Cl)c2ccccc2n1 | 0 |  | 6.98 |  | 
CC(C)N(C)C(=O)c1nc(-c2ccccc2Cl)c2ccccc2n1 | 0 |  | 12.5 |  | 
CCC(C)NC(=O)c1nc(-c2ccc(Cl)cc2)c2cc(Cl)ccc2n1 (stereo unspecified) | 0 | 49 |  |  | 
CCCCCCN(CCCCCC)C(=O)c1nc(-c2ccc(Cl)cc2)c2ccccc2n1 | 0 |  | 3.42 | Active | 
CCC(C)N(C)C(=O)c1cc2ccccc2c(-c2ccccc2Cl)n1 (stereo unspecified) | 0 |  |  | Active | Active
O=C(c1nc(-c2ccc(Cl)cc2)c2cc(Cl)ccc2n1)N1CCCCCC1 | 0 | 77 |  |  | 
O=C(c1nc(-c2ccc(Cl)cc2)c2ccccc2n1)N1CCCCCC1 | 0 |  | 84.3 |  | 
O=C(c1nc(-c2ccccc2)c2ccccc2n1)N1CCCCCC1 | 0 | 79 |  |  | 
O=C(c1nc(-c2ccccc2Cl)c2ccccc2n1)N1CCCCCC1 | 0 |  | 8.77 |  | 
CCC(C)NC(=O)c1nc(-c2ccccc2Cl)c2ccccc2n1 (stereo unspecified) | 0 | 63 |  |  | 
O=C(c1nc(-c2ccccc2Cl)c2ccccc2n1)N1CCCCC1 | 0 |  | 46 |  | 
CCC(C)NC(=O)c1nc(-c2ccc(Cl)cc2)c2ccccc2n1 (stereo unspecified) | 0 | 37 |  |  | 
CC(C)CN(C)C(=O)c1nc(-c2ccccc2)c2ccccc2n1 | 0 |  | 66.5 |  | 
CCC(C)NC(=O)c1nc(-c2ccccc2)c2cc(Cl)ccc2n1 (stereo unspecified) | 0 | 0 |  |  | 
CC(C)N(C)C(=O)c1nc(-c2ccccc2)c2ccccc2n1 | 0 |  | 70.3 |  | 
CCCCCCN(CCCCCC)C(=O)c1nc(-c2ccc(Cl)cc2)c2cc(Cl)ccc2n1 | 0 |  | 4.31 |  | 
CC[C@@H](C)N(C)C(=O)c1nc(-c2ccccc2)c2ccccc2n1 | 0 |  | 6.41 |  | 
O=C(c1nc(-c2ccccc2Cl)c2cc(Cl)ccc2n1)N1CCCC1 | 0 | 73 |  |  | 

From ChEMBL document CHEMBL2057062, “Synthesis and biological evaluation of 4-phenylquinazoline-2-carboxamides designed as a novel class of potent ligands of the translocator protein” (J Med Chem, 2012)
